Among the data in US11702414B2, “Thiadiazole IRAK4 inhibitors” (Gilead Sciences, Inc., priority 2018, dated 2023) are IC50 and EC50 values, retold here.

In experiment [1] the target is IRAK4 enzyme (Homo sapiens (Human), UniProt Q9NWZ3). Briefly: IRAK4 Biochemical Assay (TR-FRET, STK1 KinEASE). The following applies: second part of Table 2 (compounds 33-343); unit inferred; read-out: IC50 IRAK4-HTBS. On the procedure:
IRAK4 enzyme (Carna Biosciences, Chuo-ku, Kobe, Japan) activity was measured by detecting phosphorylated peptide substrate formation using an antibody against the phosphorylated peptide substrate. This is a time-resolved fluorescence resonance energy transfer (TR-FRET) immunoassay, based on the STK1 KinEASE Assay (Cisbio, Bedford, Mass.). The assay was designed as a simple two-step, endpoint assay (a 5 μl enzyme reaction followed by 5 μl stop and detect Solution) performed in ProxiPlate-384 Plus plates (Perkin Elmer, Waltham, Mass.). […] Compounds diluted in DMSO were spotted into 384 well plates using a Labcyte® Echo 550 Liquid Handling System prior to addition of IRAK4 enzyme and peptide substrate. Reaction solutions were delivered using a Multi-Flo (Bio-Tek Instruments). The enzyme and peptide solution was incubated with compound for 15 minutes at room temp before the reaction was initiated by the addition of ATP. The standard 5 μl reaction mixture contained 500 μM ATP, 2 μM peptide (STK1 Peptide), 0.75 nM of IRAK4 in reaction buffer (50 mM HEPES, pH 7.0, 0.02% NaN3, 0.01% BSA, 0.1 mM Orthovanadate, 5 mM MgCl2, 0.025% NP-40, 1 mM DTT). After 120 min of incubation at room temperature, 5 μl of Stop and Detect Solution (1:100 Cryptate labeled anti-phosphorylated peptide antibody solution and 125 nM Tracer in a 50 mM HEPES pH 7.0 detection buffer containing sufficient EDTA) was added. The plate was then further incubated for 60 minutes at room temperature and read on Envision 2103 Multilabeled reader (PerkinElmer) with excitation/emission/FRET emission at 340 nm/615 nm/665 nm, respectively. Fluorescence intensities at 615 nm and 665 nm emission wavelengths were expressed as a ratio (665 nm/615 nm). Percentage of inhibition was calculated as below: % Inhibition=100×(RatioSample−Ratio0% Inhibition)/(Ratio100% Inhibition−Ratio0% Inhibition)
The 0% inhibition value comes from control wells lacking inhibitor.

The subject of experiment [2] is TNFα. The experiment can be described thus: IRAK4 Monocyte TNFα Cell Based Assay. More on the design: species or system human. The protocol:
IRAK4 Monocyte TNFα Cell Based Assay Procedure:
The cell suspension was then plated at a density of 5,000 cells/well onto black 384 well Greiner clear bottom plates. Plates were pre-spotted with test compounds and serially diluted in DMSO where 40 nL/well were delivered using the Echo 550 acoustic liquid dispenser (Labcyte®) for a final DMSO concentration of 0.1%. Plated cells were treated with compound for 1 hour at 37° C. Cells were then stimulated with 50 pg/ml of LPS (Sigma) excluding outside columns of plate used for unstimulated cell control wells. Cells were incubated for an additional 4 hours at 37° C. Cells were then spun out of the media and 5μl of sample were taken and analyzed for total TNFα content using the TR-FRET Human TNFα detection system (CisBio). This system utilizes two labeled antibodies (cryptate and XL665) that bind to two different epitopes of the TNFα molecule and produce FRET signal proportional to the concentration of TNFα in the sample. Detection antibodies are mixed 50:50 and 5 μL were dispensed into each well. Plates were covered with clear seals and incubated at room temp overnight. […] Percent of control was calculated as follows: % Control=100×(RatioSample−Ratio0% Stimulation)/(Ratio100% Stimulation−Ratio0% Stimulation) where unstimulated cells (0% stimulation) were the negative control and stimulated cells (100% stimulation) were used as the positive control.

Where [3] appears, read: Homo sapiens, Monocyte, human monocytes, LPS-stimulated, compounds 1-32, read-out: EC50 TNF.
The mark [4] stands for this setting: human monocytes, second part of Table 2 (compounds 33-343), unit inferred, read-out: EC50MONO TNF HTRF.

As a reminder, the IC50 is the concentration that gives 50% inhibition.

Where two headings read alike, the source gives them in different places.

Chain of IRAK4 enzyme (Q9NWZ3 whole entry): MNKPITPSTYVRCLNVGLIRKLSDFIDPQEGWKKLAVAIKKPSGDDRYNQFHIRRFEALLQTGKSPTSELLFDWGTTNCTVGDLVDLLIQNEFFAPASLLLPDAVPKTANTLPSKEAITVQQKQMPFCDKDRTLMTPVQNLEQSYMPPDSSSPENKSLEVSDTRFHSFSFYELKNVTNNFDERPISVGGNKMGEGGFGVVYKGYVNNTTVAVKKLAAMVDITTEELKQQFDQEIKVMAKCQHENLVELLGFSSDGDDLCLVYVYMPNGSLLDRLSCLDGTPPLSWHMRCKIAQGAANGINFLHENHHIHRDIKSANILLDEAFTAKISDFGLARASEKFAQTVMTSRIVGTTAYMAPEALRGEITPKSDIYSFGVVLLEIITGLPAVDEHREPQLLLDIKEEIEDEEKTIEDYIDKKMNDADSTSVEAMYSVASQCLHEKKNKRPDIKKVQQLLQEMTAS

With `CC(=O)NC1CCC(F)(c2nnc(-c3cnc(-c4ccc5cc(C#N)cnn45)cc3NC3COC3)s2)CC1` (single isomer, unassigned) [Example 195, N-(4-(5-(6-(3-cyanopyrrolo[1,2-b]pyridazin-7-yl)-4-(oxetan-3-ylamino)pyridin-3-yl)-1,3,4-thiadiazol-2-yl)-4-fluorocyclohexyl)acetamide], in experiment [1], the IC50 stood at 1.09 nM.

As to `CC(=O)NC1CCC(F)(c2nnc(-c3cnc(-c4ccc5cc(C#N)cnn45)cc3NC3COC3)s2)CC1` (single isomer, unassigned) [Example 196, N-(4-(5-(6-(3-cyanopyrrolo[1,2-b]pyridazin-7-yl)-4-(oxetan-3-ylamino)pyridin-3-yl)-1,3,4-thiadiazol-2-yl)-4-fluorocyclohexyl)acetamide], in experiment [1], the IC50 stood at 1.62 nM. For the compound `CC1(O)CCC(c2nnc(-c3cnc(-c4ccc5cc(C#N)cnn45)cc3NC3COC3)s2)CC1` (single isomer, unassigned) [Example 206, 7-(5-(5-(4-hydroxy-4-methylcyclohexyl)-1,3,4-thiadiazol-2-yl)-4-(oxetan-3-ylamino)pyridin-2-yl)pyrrolo[1,2-b]pyridazine-3-carbonitrile], in experiment [1], the IC50 is 0.56 nM. In the case of `CC(=O)N[C@H]1CC[C@H](c2nnc(-c3cnc(-c4ccc5cc(C#N)cnn45)cc3N[C@H]3CC[C@H](c4nnc(C(F)F)o4)CC3)s2)CC1` [Example 2], the EC50 in experiment [2] (setting [3]) came to 8 nM. On the same count and under the same terms, next, `CC(=O)N[C@H]1CC[C@H](c2nnc(-c3cnc(-c4ccc5cc(C#N)cnn45)cc3NCC#N)s2)CC1` [Example 20, N-((1r,4r)-4-(5-(4-((cyanomethyl)amino)-6-(3-cyanopyrrolo[1,2-b]pyridazin-7-yl)pyridin-3-yl)-1,3,4-thiadiazol-2-yl)cyclohexyl)acetamide]: 6 nM; `CC(=O)N[C@H]1CC[C@H](c2nnc(-c3cnc(-c4ccc5cc(C#N)cnn45)cc3NC3COC3)s2)CC1` [Example 21, N-((1r,4r)-4-(5-(6-(3-cyanopyrrolo[1,2-b]pyridazin-7-yl)-4-(oxetan-3-ylamino)pyridin-3-yl)-1,3,4-thiadiazol-2-yl)cyclohexyl)acetamide]: 10 nM. Still for that read-out and setting: as for `COC(=O)NC[C@H]1C[C@H](Nc2cc(-c3ccc4cc(C#N)cnn34)ncc2-c2nnc([C@H]3CC[C@H](NC(C)=O)CC3)s2)C1` [Example 23, methyl (((1R,3r)-3-((5-(5-((1r,4R)-4-acetamidocyclohexyl)-1,3,4-thiadiazol-2-yl)-2-(3-cyanopyrrolo[1,2-b]pyridazin-7-yl)pyridin-4-yl)amino)cyclobutyl)methyl)carbamate], the figure is 6 nM. For the compound `CC(=O)N[C@@H]1CCN(c2nnc(-c3cnc(-c4ccc5cc(C#N)cnn45)cc3NC(C)C)s2)C[C@@H]1O` [Example 63, N-((3S,4R)-1-(5-(6-(3-cyanopyrrolo[1,2-b]pyridazin-7-yl)-4-(isopropylamino)pyridin-3-yl)-1,3,4-thiadiazol-2-yl)-3-hydroxypiperidin-4-yl)acetamide], the EC50 in experiment [2] (Homo sapiens, Monocyte, human monocytes, second part of Table 2 (compounds 33-343), unit inferred, read-out: EC50MONO TNF HTRF) was 13.8 nM. Regarding `CC(C)Nc1cc(-c2ccc3cc(C#N)cnn23)ncc1-c1nnc(C23CCC(O)(CC2)CC3)s1` [Example 89, 7-(5-(5-(4-hydroxybicyclo[2.2.2]octan-l-yl)-1,3,4-thiadiazol-2-yl)-4-(isopropylamino)pyridin-2-yl)pyrrolo[1,2-b]pyridazine-3-carbonitrile], in experiment [2] (setting [4]), the EC50 was 11.3 nM.

For `CC(C)Nc1cc(-c2ccc3cc(C#N)cnn23)ncc1-c1nnc(N2CC3CC(C2)N3C(=O)C2CCN(C)CC2)s1` [Example 117, 7-(4-(isopropylamino)-5-(5-(6-(1-methylpiperidine-4-carbonyl)-3,6-diazabicyclo[3.1.1]heptan-3-yl)-1,3,4-thiadiazol-2-yl)pyridin-2-yl)pyrrolo[1,2-b]pyridazine-3-carbonitrile], the EC50 in experiment [2] (Homo sapiens, Monocyte, read-out: EC50MONO TNF HTRF) came to 11.1 nM. `C[C@H](C#N)Nc1cc(-c2ccc3cc(C#N)cnn23)ncc1-c1nnc(N2C[C@H]3CC[C@@H](C2)[C@@H]3NC(=O)C2CC2)s1` [Example 148, N-((1R,5S,8S)-3-(5-(4-(((R)-1-cyanoethyl)amino)-6-(3-cyanopyrrolo[1,2-b]pyridazin-7-yl)pyridin-3-yl)-1,3,4-thiadiazol-2-yl)-3-azabicyclo[3.2.1]octan-8-yl)cyclopropanecarboxamide]: the EC50 in experiment [2] (setting [4]) came to 1.4 nM. Same read-out and setting: next, `CC(C)Nc1cc(-c2ccc3cc(C#N)cnn23)ncc1-c1nnc(N2CC[C@@H](O)C(F)(F)C2)s1` [Example 162, (R)-7-(5-(5-(3,3-difluoro-4-hydroxypiperidin-l-yl)-1,3,4-thiadiazol-2-yl)-4-(isopropylamino)pyridin-2-yl)pyrrolo[1,2-b]pyridazine-3-carbonitrile]: 26.5 nM; `C[C@H](C#N)Nc1cc(-c2ccc3cc(C#N)cnn23)ncc1-c1nnc(N2CC3CC(C2)O3)s1` [Example 178, 7-(5-(5-(6-oxa-3-azabicyclo[3.1.1]heptan-3-yl)-l,3,4-thiadiazol-2-yl)-4-(((R)-1-cyanoethyl)amino)pyridin-2-yl)pyrrolo[1,2-b]pyridazine-3-carbonitrile]: 4.9 nM. On the same count and under the same terms, as for `CC(=O)N[C@@H]1CCN(c2nnc(-c3cnc(-c4ccc5cc(C#N)cnn45)cc3NC3COC3)s2)CC1(F)F` [Example 183, (R)-N-(1-(5-(6-(3-cyanopyrrolo[l,2-b]pyridazin-7-yl)-4-(oxetan-3-ylamino)pyridin-3-yl)-1,3,4-thiadiazol-2-yl)-3,3-difluoropiperidin-4-yl)acetamide], the figure is 8.8 nM; as for `CC1(O)CCN(c2nnc(-c3cnc(-c4ccc5cc(C#N)cnn45)cc3NC3COC3)s2)CC1` [Example 187, 7-(5-(5-(4-hydroxy-4-methylpiperidin-1-yl)-1,3,4-thiadiazol-2-yl)-4-(oxetan-3-ylamino)pyridin-2-yl)pyirolo[1,2-b]pyridazine-3-carbonitrile], 10.8 nM; as for `CC1(O)CCN(c2nnc(-c3cnc(-c4ccc5cc(C#N)cnn45)cc3NC3CCOCC3)s2)CC1` [Example 188, 7-(5-(5-(4-hydroxy-4-methylpiperidin-l-yl)-1,3,4-thiadiazol-2-yl)-4-((tetrahydro-2H-pyran-4-yl)amino)pyridin-2-yl)pyrrolo[1,2-b]pyridazine-3-carbonitrile], 7.6 nM.

As for `CC(C)Nc1cc(-c2ccc3cc(C#N)cnn23)ncc1-c1nnc(N2CC[C@@](C)(O)[C@H](F)C2)s1` [Example 191, 7-(5-(5-((3R,$R)-3-fluoro-4-hydroxy-4-methylpiperidin-1-yl)-1,3,4-thiadiazol-2-yl)-4-(isopropylamino)pyridin-2-yl)pyrrolo[1,2-b]pyridazine-3-carbonitrile], the EC50 in experiment [2] (setting [4]) worked out at 22.9 nM.

`C[C@]1(O)CCN(c2nnc(-c3cnc(-c4ccc5cc(C#N)cnn45)cc3NC3CCOCC3)s2)C[C@@H]1F` [Example 204, 7-(5-(5-((3S,4S)-3-fluoro-4-hydroxy-4-methylpiperidin-l-yl)-1,3,4-thiadiazol-2-yl)-4-((tetrahydro-2H-pyran-4-yl)amino)pyridin-2-yl)pyrrolo[1,2-b]pyridazine-3-carbonitrile]: the EC50 in experiment [2] (setting [4]) is 3.5 nM. On the same count and under the same terms, next, `CC(C)Nc1cc(-c2ccc3cc(C#N)cnn23)ncc1-c1nnc(CCN)s1` [Example 212, 7-(5-(5-(2-aminoethyl)-l,3,4-thiadiazol-2-yl)-4-(isopropylamino)pyridin-2-yl)pyrrolo[1,2-b]pyridazine-3-carbonitrile]: 305 nM. Still for that read-out and setting: next, `CC(C)Nc1cc(-c2ccc3cc(C#N)cnn23)ncc1-c1nnc(C(=O)N2CC[C@H](CO)C2)s1` [Example 221, (S)-7-(5-(5-(3-(hydroxymethyl)pyrrolidine-l-carbonyl)-1,3,4-thiadiazol-2-yl)-4-(isopropylamino)pyridin-2-yl)pyrrolo[1,2-b]pyridazine-3-carbonitrile]: 2320 nM.
